The numbers were not newly measured in patent publication US20200132604A1, “METHODS OF DETERMINING PROTEIN STRUCTURE USING TWO-PHOTON FLUORESCENCE MEASUREMENTS” (Biodesy, Inc., priority 2017, published 2020), which cites them from elsewhere.

Data set [1] deals with monomeric forms of avidin or streptavidin. To be noted: read-out: biotin-binding affinity.
Data set [2] relates to human IgG-Fc. To be noted: Sugita, et al. (2013).

Regarding `O=C(O)CCCC[C@@H]1SC[C@@H]2NC(=O)N[C@@H]21` [biotin], the Kd in data set [1] is approximately 0.01 µM. Turning to NARKFYKG, the affinity in data set [2] was 6.5e+06 M⁻¹. As to NKFRGKYK, the affinity in data set [2] was 8.9e+06 M⁻¹.
